Tests used:
[1] = Solubility studies: dissolution, paddle method, sodium laurylsulphate 0.5% (w/v) medium; format: physicochemical
Experimental: The compound of formula (I) both in crystalline form and spray dried (at T0 and after 3 weeks […]) storage at 25° C., 60% RH and 40° C., 75% RH respectively) as well as the solid dispersions of Examples 1 to 4 (at T0 and after 2 weeks […]) storage at 25° C., 60% RH and 40° C., 75% RH respectively) and Example 5 at T0 only were introduced in a VK 7000 dissolution system (VanKel, New Jersey, USA), using the paddle method, combined with a VK 8000 automatic sampling station (n=3). Sodium laurylsulphate 0.5% (w/v) was used as dissolution medium. The temperature of the medium (900 ml) was kept at 37±0.5 ° C., while the rotational speed of the paddles was set at 100 rpm. Samples (filtered using Full Flow Filters (Varian) -35 μm) of 5 ml were withdrawn at 5, 10, 15, 20, 30, 45 and 60 min and spectrophotometrically analysed at 240 nm by UV-spectrophotometry, type UV-1650 (Shimadzu, Deurne, Belgium) (w/w dilution if necessary), using an appropriate calibration curve. Each vessel contained approximately 150 mg of the compound of formula (I).

[2] = X-ray diffraction of solid dispersions at T0 and after storage; format: physicochemical; settings: after 3 weeks at 40° C., 75% RH
Experimental: The spray dried particles were collected in a reservoir attached to a cyclone, cooled down to room temperature and stored in sealed vials (room temperature, ambient relative humidity (RH)) prior to their characterisation at T0. After characterisation at T0, the spray dried solids were stored in open vials for 2 weeks (3 weeks for Comparative Example 1) in desiccators at 25° C., 60% RH and 40° C., 75% RH. X-ray diffraction (D-500, Siemens, Germany) with CuKα radiation (0.154 nm) was performed on physical mixtures of the compound of formula (I) with HPMC ES, HPC LF, HPMCP HP-50 and PVP K30 and the corresponding solid dispersions (at T0 and after 2 weeks […]) storage at both conditions), as well as spray dried compound of formula (I) without polymer (storage for three weeks under the two conditions). The angular range (2θ) varied from 15 to 60° with steps of 0.02° and the measuring time was 1 s/step.

[3] = Storage experiments, visual inspection; format: physicochemical; settings: open vials, 2 weeks (3 weeks Comparative Example 1), 25° C., 60% RH and 40° C., 75% RH
Experimental: The spray dried particles were collected in a reservoir attached to a cyclone, cooled down to room temperature and stored in sealed vials (room temperature, ambient relative humidity (RH)) prior to their characterisation at T0. After characterisation at T0, the spray dried solids were stored in open vials for 2 weeks (3 weeks for Comparative Example 1) in desiccators at 25° C., 60% RH and 40° C., 75% RH.

[4] = test system: wild-type and resistant HIV strains; assay: Activity against HIV strains (experiences so far)
[5] = Water solubility of crystals (experiences so far); format: physicochemical

Compound | compound of formula (I) dissolved after 60 minutes after storage ([1]; after storage at 40° C., 75% RH for three weeks, 60 min) | compound of formula (I) dissolved / released after 30 minutes ([1]; fresh (T0), sodium laurylsulphate 0.5% (w/v), 900 ml, 37 °C, 100 rpm, 30 min) | formation of the crystalline form of the compound of formula (I) (X-ray) [2] | storage stability to visual inspection (colouration) [3] | compound of formula (I) dissolved / released after 60 minutes ([1]; fresh (T0), sodium laurylsulphate 0.5% (w/v), 900 ml, 37 °C, 100 rpm, 60 min) | activity against wild-type and resistant HIV strains [4] | water solubility of crystals [5]
O=C1CN(C(=O)c2cc(-c3cc(F)cc(Cl)c3)n(-c3ccc(F)c(Cl)c3)n2)CN1 [Comparative Example 1] | 35% | about 60% | formation of a large amount of the crystalline form | storage stable |  |  | 
O=C1CN(C(=O)c2cc(-c3cc(F)cc(Cl)c3)n(-c3ccc(F)c(Cl)c3)n2)CN1 [compound of formula (I)] |  |  |  |  | about 40% | highly active | only sparingly water-soluble

From patent US20130072531A1, “SOLID DISPERSION COMPRISING AN ANTI-HIV AGENT” (AiCuris GmbH & Co. KG, priority 2009, published 2013)
